Results on 17 molecules are retold here after patent US9670209B2 (ACADIA Pharmaceuticals Inc., priority 2013, dated 2017).

The target of test [1] is human M2 muscarinic acetylcholine receptor (Homo sapiens (Human), UniProt P08172). As to the kind of experiment: R-SAT (Receptor Selection and Amplification) assay, M2. It counts as cell-based. Conditions: for M2 PEC50 AVG: R-SAT, NIH-3T3 cells; for Emax: read-out: M2 EFF % AVG. Here is the method: (§1) Briefly, NIH-3T3 cells were grown in 96-well tissue culture plates to 70% to 80% confluence. Cells were transfected with plasmid DNAs using Superfect Reagent (QIAGEN, Valencia, Calif.) as per the manufacturer's protocols. […] Cells were then grown in a humidified atmosphere with 5% ambient CO2 for 4 to 6 days. Media were then removed from the plates, and beta-galactosidase activity was measured by the addition of o-nitrophenyl-D-galactopyranoside (in phosphate-buffered saline with 5% NP-40 detergent). […] All data represent the mean of three wells and were analyzed using the computer program Excel Fit, and EC50 determinations were made using least-squares fit analysis with GraphPad Software Inc. (San Diego, Calif.) software.
Chain of human M2 muscarinic acetylcholine receptor (P08172 whole entry): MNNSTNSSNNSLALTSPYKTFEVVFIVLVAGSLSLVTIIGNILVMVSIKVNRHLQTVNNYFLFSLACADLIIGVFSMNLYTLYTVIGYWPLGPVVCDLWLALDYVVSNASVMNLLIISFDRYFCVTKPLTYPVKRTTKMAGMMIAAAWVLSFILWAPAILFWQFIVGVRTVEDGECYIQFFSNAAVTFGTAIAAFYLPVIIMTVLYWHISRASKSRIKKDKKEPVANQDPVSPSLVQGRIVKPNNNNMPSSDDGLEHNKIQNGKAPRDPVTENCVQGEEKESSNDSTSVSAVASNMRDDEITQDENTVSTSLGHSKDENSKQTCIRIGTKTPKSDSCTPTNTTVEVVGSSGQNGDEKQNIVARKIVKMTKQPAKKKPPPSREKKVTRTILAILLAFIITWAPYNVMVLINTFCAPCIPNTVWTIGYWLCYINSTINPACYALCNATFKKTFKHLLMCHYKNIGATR

The target of test [2] is human M1 muscarinic acetylcholine receptor (Homo sapiens (Human), UniProt P11229). As to the kind of experiment: R-SAT (Receptor Selection and Amplification) assay, M1. It counts as cell-based. Conditions: for Emax: percent efficacy vs carbachol = 100 percent, read-out: M1 EFF % AVG. Here is the method: as §1
Chain of human M1 muscarinic acetylcholine receptor (P11229 whole entry): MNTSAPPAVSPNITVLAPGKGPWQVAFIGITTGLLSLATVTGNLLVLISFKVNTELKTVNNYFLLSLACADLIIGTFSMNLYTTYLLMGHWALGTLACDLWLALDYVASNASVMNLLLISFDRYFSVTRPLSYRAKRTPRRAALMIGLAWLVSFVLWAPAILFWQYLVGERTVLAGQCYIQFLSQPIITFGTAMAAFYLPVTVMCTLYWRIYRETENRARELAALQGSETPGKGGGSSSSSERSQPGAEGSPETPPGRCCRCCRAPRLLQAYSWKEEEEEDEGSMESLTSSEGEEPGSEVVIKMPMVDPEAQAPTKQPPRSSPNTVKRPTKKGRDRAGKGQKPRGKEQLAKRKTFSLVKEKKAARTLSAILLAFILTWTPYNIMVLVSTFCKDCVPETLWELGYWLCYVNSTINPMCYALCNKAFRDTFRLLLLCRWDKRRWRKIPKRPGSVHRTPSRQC
The next test addresses M1 muscarinic receptor (Homo sapiens (Human), UniProt P11229). As to the kind of experiment: M1 GTPγS binding assay.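 On Emax: efficacy relative to carbachol as 100%.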 It counts as biochemical. Conditions: for M1 GTPγS PEC50 AVG: GTPγS binding; for Emax: read-out: M1 GTPγS EFF % AVG. Background: GTPγS resists hydrolysis and so accumulates on activated G proteins.
For test [3], the target named is human M3 muscarinic acetylcholine receptor (Homo sapiens (Human), UniProt P20309). As to the kind of experiment: R-SAT (Receptor Selection and Amplification) assay, M3. In kind it is cell-based. The following applies: for M3 PEC50 AVG: R-SAT, NIH-3T3 cells; for Emax: read-out: M3 EFF % AVG. Here is the method:
as §1

Chain of human M3 muscarinic acetylcholine receptor (P20309 whole entry): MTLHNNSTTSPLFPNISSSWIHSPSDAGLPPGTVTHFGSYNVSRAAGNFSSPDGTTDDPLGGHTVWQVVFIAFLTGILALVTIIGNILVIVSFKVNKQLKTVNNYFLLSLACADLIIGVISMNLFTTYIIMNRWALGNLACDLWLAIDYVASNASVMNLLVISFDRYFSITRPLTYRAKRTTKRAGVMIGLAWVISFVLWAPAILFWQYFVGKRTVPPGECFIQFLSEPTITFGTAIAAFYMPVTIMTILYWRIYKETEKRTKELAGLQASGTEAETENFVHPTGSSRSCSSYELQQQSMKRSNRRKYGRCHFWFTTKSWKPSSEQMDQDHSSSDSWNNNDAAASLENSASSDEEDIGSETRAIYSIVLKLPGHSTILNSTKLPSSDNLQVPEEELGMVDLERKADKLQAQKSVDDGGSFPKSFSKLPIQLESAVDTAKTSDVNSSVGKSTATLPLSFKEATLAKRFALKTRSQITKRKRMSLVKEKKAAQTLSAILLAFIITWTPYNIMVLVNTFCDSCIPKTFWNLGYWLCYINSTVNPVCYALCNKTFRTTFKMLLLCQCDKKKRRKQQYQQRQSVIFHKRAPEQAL
Chain of M1 muscarinic receptor (P11229 whole entry): as the sequence (P11229 whole entry) above

As to `Cc1ccc2cnn(C[C@H](C)CN3[C@@H]4CC[C@H]3C[C@@H](OCC3CC3)C4)c2c1` [Compound 304, 1-((R)-3-(3-(Cyclopropylmethoxy)-8-aza-bicyclo[3.2.1]octan-8-yl)-2-methylpropyl)-6-methyl-1H-indazole], in test [1], the “M2 PEC50 AVG” value was 7.6 and the Emax worked out at 108%. In addition, the “M1 PEC50 AVG” value in test [2] (NIH-3T3 cells) is listed as 8.9. The Emax in test [2] stood at 110%. Also, on M1 muscarinic receptor, the “M1 GTPγS PEC50 AVG” value was 8.3 and the Emax turned out to be 67%. Further, in test [3], the “M3 PEC50 AVG” value is listed as 7.4 and the Emax came out at 9%.
As for `C[C@H](CN1[C@@H]2CC[C@H]1C[C@@H](OCC1CC1)C2)Cn1ncc2ccc(F)cc21` [Compound 307, 1-((R)-3-(3-(Cyclopropylmethoxy)-8-aza-bicyclo[3.2.1]octan-8-yl)-2-methylpropyl)-6-fluoro-1H-indazole], in test [1], the “M2 PEC50 AVG” value is listed as 7.7 and the Emax amounted to 198%. In addition, the “M1 PEC50 AVG” value in test [2] (NIH-3T3 cells) amounted to 9.5. In addition, the Emax in test [2] came out at 156%. Also, at M1 muscarinic receptor, the “M1 GTPγS PEC50 AVG” value was 8.0 and the Emax is 63%. In test [3], the “M3 PEC50 AVG” value amounted to 7.3 and the Emax worked out at 19%.
In the case of `C=CCO[C@H]1C[C@H]2CC[C@@H](C1)N2C[C@@H](C)Cn1ncc2ccc(F)cc21` [Compound 308, 1-((R)-3-(3-(Allyloxy)-8-aza-bicyclo[3.2.1]octan-8-yl)-2-methylpropyl)-6-fluoro-1H-indazole], in test [1], the “M2 PEC50 AVG” value is 7.4 and the Emax turned out to be 152%. In addition, the “M1 PEC50 AVG” value in test [2] (NIH-3T3 cells) is 8.9. Further, the Emax in test [2] stood at 131%. Moreover, at M1 muscarinic receptor, the “M1 GTPγS PEC50 AVG” value is on record as 7.1 and the Emax was 66%. In addition, in test [3], the “M3 PEC50 AVG” value was 6.3 and the Emax stood at 18%.
For `COCC[C@H]1C[C@H]2CC[C@@H](C1)N2C[C@@H](C)Cn1ncc2ccc(F)cc21` [Compound 309, 1-((R)-3-(3-(2-Methoxyethyl)-8-aza-bicyclo[3.2.1]octan-8-yl)-2-methylpropyl)-6-fluoro-1H-indazole], in test [1], the “M2 PEC50 AVG” value was 7.5 and the Emax was determined as 176%. Further, the “M1 PEC50 AVG” value in test [2] (NIH-3T3 cells) was 9.4. Moreover, the Emax in test [2] was determined as 123%. Also, at M1 muscarinic receptor, the “M1 GTPγS PEC50 AVG” value was 7.3 and the Emax is 53%. For the same molecule, in test [3], the “M3 PEC50 AVG” value amounted to 6.9 and the Emax turned out to be 18%.
For `C[C@H](CN1[C@@H]2CC[C@H]1C[C@@H](OCC1CC1)C2)Cn1ncc2ccc(CO)cc21` [Compound 310s], the Emax in test [1] was 27%; in test [2] it was 96%; at M1 muscarinic receptor it was 62%; in test [3] it was 6%. In addition, the EC50 was 31.6 nM in test [2] (NIH-3T3 cells, read-out: M1 PEC50 AVG (converted)) and 631 nM at M1 muscarinic receptor.
On to `COc1ccc2cnn(C[C@H](C)CN3[C@@H]4CC[C@H]3C[C@@H](OCC3CC3)C4)c2c1` [Compound 311], for which the Emax amounted to 65% in test [1], 120% in test [2], 55% on M1 muscarinic receptor and 2% in test [3]. On M1 muscarinic receptor, this molecule had an EC50 of 50.1 nM.
`COCC[C@H]1C[C@H]2CC[C@@H](C1)N2C[C@@H](C)Cn1ncc2ccc(OC)cc21` [Compound 313, 1-((R)-3-((1R,3R,58)-3-(2-methoxyethyl)-8-azabicyclo[3.2.1]octan-8-yl)-2-methylpropyl)-6-methoxy-1H-indazole]: in test [1], the “M2 PEC50 AVG” value is 7.3. Further, the Emax in test [1] is 111%; in test [2] it was 116%; on M1 muscarinic receptor, 49%; in test [3] it was 7%. The “M1 PEC50 AVG” value in test [2] (NIH-3T3 cells) is reported as 8.2. On M1 muscarinic receptor, this molecule had an EC50 of 39.8 nM.
For `C[C@H](CN1[C@@H]2CC[C@H]1C[C@@H](OC1CCCC1)C2)Cn1ncc2ccccc21` [Compound 314s, 1-((R)-3-((1R,3R,58)-3-(cyclopentyloxy)-8-azabicyclo[3.2.1]octan-8-yl)-2-methylpropyl)-1H-indazole], the “M2 PEC50 AVG” value in test [1] is on record as 7.3. The Emax in test [1] was 74%; in test [2], 104%; on M1 muscarinic receptor it was 48%; in test [3] it was 8%. In addition, the “M1 PEC50 AVG” value in test [2] (NIH-3T3 cells) was found to be 8.4. At M1 muscarinic receptor, this molecule showed an EC50 of 25.1 nM.
`C[C@H](CN1[C@@H]2CC[C@H]1C[C@@H](OCC1CCC1)C2)Cn1ncc2ccccc21` [Compound 315, 1-((R)-3-(3-(cyclobutylmethoxy)-8-aza-bicyclo[3.2.1]octan-8-yl)-2-methylpropyl)-1H-indazole]: the “M2 PEC50 AVG” value in test [1] is 7.3. Also, the Emax in test [1] turned out to be 47%; in test [2] it was 100%; on M1 muscarinic receptor, 36%; in test [3], 5%. Further, the “M1 PEC50 AVG” value in test [2] (NIH-3T3 cells) is on record as 8.1. This molecule had an EC50 on M1 muscarinic receptor of 50.1 nM.
With `Cc1nn(C[C@H](C)CN2[C@@H]3CC[C@H]2C[C@@H](OCC2CC2)C3)c2ccccc12` [Compound 316, 1-((R)-3-(3-(cyclopropylmethoxy)-8-aza-bicyclo[3.2.1]octan-8-yl)-2-methylpropyl)-3-methyl-1H-indazole], the “M2 PEC50 AVG” value in test [1] is 6.6. Besides, the Emax in test [1] was 81%; in test [2], 78%; on M1 muscarinic receptor it was 88%; in test [3], 5%. Further, the “M1 PEC50 AVG” value in test [2] (NIH-3T3 cells) worked out at 7.9. At M1 muscarinic receptor, this molecule showed an EC50 of 31.6 nM.
Regarding `Cc1cccc2cnn(C[C@H](C)CN3[C@@H]4CC[C@H]3C[C@@H](OCC3CC3)C4)c12` [Compound 317, 1-((R)-3-(3-(cyclopropylmethoxy)-8-aza-bicyclo[3.2.1]octan-8-yl)-2-methylpropyl)-7-methyl-1H-indazole], the “M2 PEC50 AVG” value in test [1] is 6.9. For the same molecule, the Emax in test [1] is 46%; in test [2] it was 81%; on M1 muscarinic receptor it was 85%; in test [3], 2%. Also, the “M1 PEC50 AVG” value in test [2] (NIH-3T3 cells) was 7.6. This molecule also gave an EC50 at M1 muscarinic receptor of 100 nM.
For `C#CCO[C@H]1C[C@H]2CC[C@@H](C1)N2C[C@@H](C)Cn1ncc2ccccc21` [Compound 318s, 1-((R)-3-((1R,3R,5S)-3-(prop-2-ynyloxy)-8-azabicyclo[3.2.1]octan-8-yl)-2-methylpropyl)-1H-indazole], the “M2 PEC50 AVG” value in test [1] was determined as 7.2. In addition, the Emax in test [1] is 92%; in test [2], 122%; at M1 muscarinic receptor, 66%; in test [3], 8%. Besides, the “M1 PEC50 AVG” value in test [2] (NIH-3T3 cells) was found to be 8.0. Moreover, at M1 muscarinic receptor, the EC50 was 79.4 nM.
In the case of `CCCO[C@H]1C[C@H]2CC[C@@H](C1)N2C[C@@H](C)Cn1ncc2ccccc21` [Compound 319s, 1-((R)-3-(3-(propoxy)-8-aza-bicyclo[3.2.1]octan-8-yl)-2-methylpropyl)-1H-indazole], the “M2 PEC50 AVG” value in test [1] came out at 7.5. The Emax in test [1] worked out at 102%; in test [2], 111%; at M1 muscarinic receptor, 63%; in test [3] it was 3%. In addition, the “M1 PEC50 AVG” value in test [2] (NIH-3T3 cells) is 8.1. On M1 muscarinic receptor, the EC50 is 200 nM.
For the molecule `COC/C=C1\C[C@H]2CC[C@@H](C1)N2C[C@@H](C)Cn1ncc2ccccc21` [Compound 320s, 1-((R)-3-((1R,3R,58)-3-(2-methoxyethylidene)-8-azabicyclo[3.2.1]octan-8-yl)-2-methylpropyl)-1H-indazole], in test [1], the “M2 PEC50 AVG” value was 7.2. For the same molecule, the Emax in test [1] was 90%; in test [2], 109%; at M1 muscarinic receptor, 60%; in test [3] it was 8%. Besides, the “M1 PEC50 AVG” value in test [2] (NIH-3T3 cells) was found to be 8.2. The molecule also gave an EC50 at M1 muscarinic receptor of 158 nM.
As for `Cc1ccc2c(cnn2C[C@H](C)CN2[C@@H]3CC[C@H]2C[C@@H](OCC2CC2)C3)c1` [Compound 321, 1-((R)-3-(3-(cyclopropylmethoxy)-8-aza-bicyclo[3.2.1]octan-8-yl)-2-methylpropyl)-5-methyl-1H-indazole], the “M2 PEC50 AVG” value in test [1] is recorded as 8.1. Moreover, the Emax was found to be 19% in test [1], 75% in test [2], 56% at M1 muscarinic receptor and 3% in test [3]. Further, the “M1 PEC50 AVG” value in test [2] (NIH-3T3 cells) is reported as 7.9. The EC50 at M1 muscarinic receptor was 63.1 nM.
Turning to `C#CCO[C@H]1C[C@H]2CC[C@@H](C1)N2C[C@@H](C)Cn1ncc2ccc(OC)cc21` [Compound 322s, 1-((R)-3-((1R,3R,5S)-3-(prop-2-ynyloxy)-8-azabicyclo[3.2.1]octan-8-yl)-2-methylpropyl)-6-methoxy-1H-indazole], in test [1], the “M2 PEC50 AVG” value was found to be 7.1. The Emax in test [1] came out at 44%; in test [2], 86%; at M1 muscarinic receptor, 42%; in test [3], 5%. Further, the “M1 PEC50 AVG” value in test [2] (NIH-3T3 cells) is 8.0. Further, on M1 muscarinic receptor, the EC50 is 79.4 nM.
`CCOCC[C@H]1C[C@H]2CC[C@@H](C1)N2C[C@@H](C)Cn1ncc2ccccc21` [Compound 323, 1-((R)-3-((1R,3R,5S)-3-(2-ethoxyethyl)-8-azabicyclo[3.2.1]octan-8-yl)-2-methylpropyl)-1H-indazole]: in test [1], the “M2 PEC50 AVG” value is reported as 7.8. In addition, the Emax in test [1] is 34%; in test [2], 66%; on M1 muscarinic receptor, 32%; in test [3], -2%. For the same molecule, the “M1 PEC50 AVG” value in test [2] (NIH-3T3 cells) worked out at 9.1. On M1 muscarinic receptor, the EC50 is 20 nM.
